Experimental data as given in patent US9089568B2, “Method of using compatible solutes containing ectoine and/or hydroxyectoine” (Bitop AG, priority 2005, dated 2015).

How the values were obtained:
amyloid plaques = assay: amyloid plaque formation in mice after oral application; format: in vivo
Source text: Unexpectedly, it has now been ascertained from investigations with mice is involving the oral application of compatible solutes ectoine, hydroxyectoine and firoin A that this enabled the formation of amyloid plaques to be reduced. Likewise, through the administration of compatible solutes the occurrence of neuropathologic effects could be reduced. […] It is to be assumed that such a preventive effect but nevertheless the therapeutic effect as well is primarily attributable to the amyloid-inhibiting properties of “compatible solutes”.

[1] = test system: chronically inflammable intestinal disease; assay: mouse model for Crohn's disease, oral compatible solutes; format: in vivo; conditions: oral ingestion
Source text: Moreover, immunological investigations have shown that the TH-2 TH-1 approach typically adopted for the chronically inflammable intestinal disease may to some extent be circumvented by “compatible solutes”. However, the positive effect of “compatible solutes” is not only limited to an alleviation of the symptoms of chronically inflammable intestinal diseases but in addition is characterized by a pronounced preventive potential. […] It is to be assumed that such a preventive effect but also the therapeutic effect is primarily attributable to the anti-inflammatory properties of “compatible solutes” which on the one hand are aimed at the intestinal epithelial cell but also at the helper T lymphocytes deemed to be the cause of the pathogenesis.

amyloid fibrils = conditions: in vitro; Arora et al. (2004); cited from earlier work

| SMILES | formation of amyloid plaques (amyloid plaques) | course of chronically inflammable intestinal diseases [1] | formation of protein deposits, so-called amyloid fibrils (amyloid fibrils) |
| --- | --- | --- | --- |
| CC1=NCC(O)C(C(=O)O)N1 (centres unmarked) [hydroxyectoine, 2-methyl-4-carboxy-5-hydroxy-3,4,5,6-tetrahydropyrimidine] | reduced | – | – |
| NC(=O)[C@H](CO)O[C@@H]1O[C@H](CO)[C@@H](O)[C@H](O)[C@@H]1O [firoin A, mannosylglyceramide] | reduced | – | – |
| CC1=NCCC(C(=O)O)N1 (centres unmarked) [ectoine, 2-methyl-4-carboxy-3,4,5,6-tetrahydropyrimidine] | reduced | favorably influenced | inhibit |
